Experimental data from ChEMBL document CHEMBL3526130, “An evaluation of using rat-derived single-dose neuropharmacokinetic parameters to project accurately large animal unbound brain drug concentrations” (Drug Metab Dispos, 2012).

Columns and labels:
Nucleic Acid = test: Ratio of drug level in cerebrospinal fluid to unbound plasma concentration in Sprague-Dawley rat treated with risperidone at 1 mg/kg, sc by LC-MS/MS analysis; type: ADME, organism-based; design: dose 1 mg/kg, route subcutaneous; settings: in vivo
[1] = Ratio of drug level in brain to plasma in cynomolgus monkey treated with risperidone at 0.1 mg/kg, sc by LC-MS/MS analysis; type: ADME, organism-based, Macaca fascicularis; design: dose 0.1 mg/kg, route subcutaneous; settings: brain and plasma, read-out: BPR
[2] = AUC(0 to 2 hrs) in Sprague-Dawley rat brain treated with risperidone at 1 mg/kg, sc by LC-MS/MS analysis; type: ADME, organism-based; design: time < 2 hr, dose 1 mg/kg, route subcutaneous
[3] = Ratio of unbound drug level in brain to plasma in cynomolgus monkey treated with risperidone at 0.1 mg/kg, sc by LC-MS/MS analysis; type: ADME, organism-based, Macaca fascicularis; design: dose 0.1 mg/kg, route subcutaneous; settings: brain and plasma
[4] = Ratio of unbound drug level in brain to plasma in Sprague-Dawley rat treated with risperidone at 1 mg/kg, sc by LC-MS/MS analysis; type: ADME, organism-based; design: dose 1 mg/kg, route subcutaneous
[5] = AUC(0 to infinity) in Sprague-Dawley rat cerebrospinal fluid treated with risperidone at 1 mg/kg, sc by LC-MS/MS analysis; type: ADME, organism-based; design: time infinity, dose 1 mg/kg, route subcutaneous
[6] = AUC(0 to 2 hrs) in Beagle dog plasma treated with risperidone at 0.1 mg/kg, sc by LC-MS/MS analysis; type: ADME, organism-based, Canis lupus familiaris; design: time < 2 hr, dose 0.1 mg/kg, route subcutaneous
[7] = Unbound fraction in cynomolgus monkey plasma treated with risperidone at 0.1 mg/kg, sc by LC-MS/MS analysis; type: ADME, organism-based, Macaca fascicularis; design: dose 0.1 mg/kg, route subcutaneous
[8] = AUC(0 to 1 hr) in cynomolgus monkey plasma treated with risperidone at 0.1 mg/kg, sc by LC-MS/MS analysis; type: ADME, organism-based, Macaca fascicularis; design: time < 1 hr, dose 0.1 mg/kg, route subcutaneous
[9] = Ratio of drug level in brain to plasma in Beagle dog treated with risperidone at 0.1 mg/kg, sc by LC-MS/MS analysis; type: ADME, organism-based, Canis lupus familiaris; design: dose 0.1 mg/kg, route subcutaneous; settings: brain and plasma, read-out: BPR
[10] = AUC(0 to 2 hrs) in Beagle dog cerebrospinal fluid treated with risperidone at 0.1 mg/kg, sc by LC-MS/MS analysis; type: ADME, organism-based, Canis lupus familiaris; design: time < 2 hr, dose 0.1 mg/kg, route subcutaneous
[11] = AUC(0 to 2 hrs) in Sprague-Dawley rat plasma treated with risperidone at 1 mg/kg, sc by LC-MS/MS analysis; type: ADME, organism-based; design: time < 2 hr, dose 1 mg/kg, route subcutaneous
[12] = AUC(0 to 2 hrs) in Sprague-Dawley rat cerebrospinal fluid treated with risperidone at 1 mg/kg, sc by LC-MS/MS analysis; type: ADME, organism-based; design: time < 2 hr, dose 1 mg/kg, route subcutaneous
[13] = AUC(0 to 1 hr) in cynomolgus monkey cerebrospinal fluid treated with risperidone at 0.1 mg/kg, sc by LC-MS/MS analysis; type: ADME, organism-based, Macaca fascicularis; design: time < 1 hr, dose 0.1 mg/kg, route subcutaneous
[14] = AUC(0 to infinity) in Sprague-Dawley rat plasma treated with risperidone at 1 mg/kg, sc by LC-MS/MS analysis; type: ADME, organism-based; design: time infinity, dose 1 mg/kg, route subcutaneous
[15] = Ratio of unbound brain concentration to drug level in cerebrospinal fluid in Beagle dog treated with risperidone at 0.1 mg/kg, sc by LC-MS/MS analysis; type: ADME, organism-based, Canis lupus familiaris; design: dose 0.1 mg/kg, route subcutaneous; settings: in vivo
[16] = Ratio of unbound brain concentration to drug level in cerebrospinal fluid in Sprague-Dawley rat treated with risperidone at 1 mg/kg, sc by LC-MS/MS analysis; type: ADME, organism-based; design: dose 1 mg/kg, route subcutaneous; settings: in vivo
[17] = Unbound fraction in cynomolgus monkey brain treated with risperidone at 0.1 mg/kg, sc by LC-MS/MS analysis; type: ADME, organism-based, Macaca fascicularis; design: dose 0.1 mg/kg, route subcutaneous
[18] = Unbound fraction in Beagle dog brain treated with risperidone at 0.1 mg/kg, sc by LC-MS/MS analysis; type: ADME, organism-based, Canis lupus familiaris; design: dose 0.1 mg/kg, route subcutaneous
[19] = AUC(0 to infinity) in Sprague-Dawley rat brain treated with risperidone at 1 mg/kg, sc by LC-MS/MS analysis; type: ADME, organism-based; design: time infinity, dose 1 mg/kg, route subcutaneous
[20] = AUC(0 to 2 hrs) in Beagle dog brain treated with risperidone at 0.1 mg/kg, sc by LC-MS/MS analysis; type: ADME, organism-based, Canis lupus familiaris; design: time < 2 hr, dose 0.1 mg/kg, route subcutaneous
[21] = Ratio of drug level in brain to plasma in Sprague-Dawley rat treated with risperidone at 1 mg/kg, sc by LC-MS/MS analysis; type: ADME, organism-based; design: dose 1 mg/kg, route subcutaneous; settings: read-out: BPR
[22] = AUC(0 to 1 hr) in cynomolgus monkey brain treated with risperidone at 0.1 mg/kg, sc by LC-MS/MS analysis; type: ADME, organism-based, Macaca fascicularis; design: time < 1 hr, dose 0.1 mg/kg, route subcutaneous
[23] = Ratio of unbound brain concentration to drug level in cerebrospinal fluid in cynomolgus monkey treated with risperidone at 0.1 mg/kg, sc by LC-MS/MS analysis; type: ADME, organism-based, Macaca fascicularis; design: dose 0.1 mg/kg, route subcutaneous; settings: in vivo
[24] = Ratio of unbound drug level in brain to plasma in Beagle dog treated with risperidone at 0.1 mg/kg, sc by LC-MS/MS analysis; type: ADME, organism-based, Canis lupus familiaris; design: dose 0.1 mg/kg, route subcutaneous; settings: brain and plasma
[25] = Unbound fraction in Beagle dog plasma treated with risperidone at 0.1 mg/kg, sc by LC-MS/MS analysis; type: ADME, organism-based, Canis lupus familiaris; design: dose 0.1 mg/kg, route subcutaneous

- Ratio (Nucleic Acid): 0.14
- Kp [1]: 0.33
- AUC(0-t) at 2 h [2]: 13.5 ng·h/mL
- Kp uu [3]: 0.19
- Kp uu [4]: 0.04
- AUC(0-inf) [5]: 12.2 ng·h/mL
- AUC(0-t) at 2 h [6]: 77.4 ng·h/mL
- fraction unbound [7]: 0.185
- AUC(0-t) at 1 h [8]: 76 ng·h/mL
- Kp [9]: 0.61
- AUC(0-t) at 2 h [10]: 6.27 ng·h/mL
- AUC(0-t) at 2 h [11]: 184 ng·h/mL
- AUC(0-t) at 2 h [12]: 3.28 ng·h/mL
- AUC(0-t) at 1 h [13]: 2.54 ng·h/mL
- AUC(0-inf) [14]: 342 ng·h/mL
- Ratio [15]: 0.68
- Ratio [16]: 0.31
- fraction unbound [17]: 0.105
- fraction unbound [18]: 0.0903
- AUC(0-inf) [19]: 69 ng·h/mL
- AUC(0-t) at 2 h [20]: 47.1 ng·h/mL
- Kp [21]: 0.07
- AUC(0-t) at 1 h [22]: 24.8 ng·h/mL
- Ratio [23]: 1.03
- Kp uu [24]: 0.27
- fraction unbound [25]: 0.203
SMILES: Cc1nc2n(c(=O)c1CCN1CCC(c3noc4cc(F)ccc34)CC1)CCCC2O (stereo unspecified) [PALIPERIDONE]
